Key:
Type in all cases: in vivo, swine
postpartum sows [1] = experiment: Timed deslorelin injection 96 hours post-weaning, single timed insemination without estrus detection (Example 3)
Method: Approximately 170 postpartum sows were randomly divided into two equal groups comprised of controls and treated. Following weaning, the controls were detected for estrus and bred following the normal standard operating procedures for the farms on winch they resided. The treated sows received a 50 mcg dose of deslorelin in SAIB at 96 hours post-weaning and were bred with a single insemination 28+/−2 hours later with no regard to estrus detection. The sows were examined for pregnancy by ultrasound at 21 days and slaughtered around 28 days post breeding. The entire reproductive tract was removed and corpora lutea and embryos were counted.

[2] = tested on: ovariectomized estrogen primed gilt; experiment: Dose response study of LH release in ovariectomized estrogen primed gilt model (RIA); details: single injection of 50 mcg deslorelin in SAIB
Method: A dose response study was performed using deslorelin in SAIB in an ovariectomized estrogen primed gilt model (Barb, et at (1999) Proceed. Int'l. Symp. Control, Rel. Bioact. Mater., 26).

postpartum sows [3] = experiment: Litter size after deslorelin treatment at three farm sites (Example 4); details: Tables 3, 4 and 5; regardless of estrus detection
Description: Postpartum sows were randomly distributed into three different groups comprised of Controls, Treatment 1, and Treatment 2, with the exception of Site 3, which was divided into two groups, Control and Treatment 2. Control sows were detected for estrus following weaning, and bred following the normal standard operating procedures for the farms on which they resided. Treatment 1 sows were detected for estrus following weaning, and received a 50 mcg dose of deslorelin in the morning when standing and were bred by AI 4 hours later and again at 24+/−2 hours later. Treatment 2 sows received a 50 mcg dose of deslorelin in SAIB at 96 or 120 hours post-weaning and were bred with a single insemination 28+/−2 hours later with no regard to estrus detection.

CCNC(=O)[C@@H]1CCCN1C(=O)[C@H](CCCN=C(N)N)NC(=O)[C@H](CC(C)C)NC(=O)[C@@H](Cc1c[nH]c2ccccc12)NC(=O)[C@H](Cc1ccc(O)cc1)NC(=O)[C@H](CO)NC(=O)[C@H](Cc1c[nH]c2ccccc12)NC(=O)[C@H](Cc1cnc[nH]1)NC(=O)[C@@H]1CCC(=O)N1 [Deslorelin, deslorelin]
Pregnancy Rate (postpartum sows [1]; 50 mcg in SAIB at 96 hours post-weaning, single insemination 28+/-2 hours later, no estrus detection): 71% | Embryo Survival (postpartum sows [1]; 50 mcg in SAIB at 96 hours post-weaning, slaughtered around 28 days post breeding): 64% | pregnancy rates (in words) (postpartum sows [1]; single timed injection post-weaning, single timed insemination, no estrus detection): normal pregnancy rates were attained | time at which LH returned to base level [2]: ≤ 18 h | LH peak ([2]; compared to Hansel et al. (1973)): about twice normal value | litter sizes (in words) (postpartum sows [3]): normal litter sizes

From patent US8530419B2, “Process for the synchronization of ovulation for timed breeding without heat detection” (priority 2003, dated 2013)
